We go through six molecules from patent US4120893A, “Anionic naphthalene thioureido toluenesulfonic acids” (American Cyanamid Company, priority 1977, dated 1978).

In assay [1] the test system is shunt pathway activated by cobra venom factor. Put plainly: Test, Code 036 (C-Shunt inhibitor), lysis of human erythrocytes in autologous serum. The class given is cell-based. The following applies: in vitro; two-fold serial dilution assay; higher well number indicates higher activity. An excerpt:
(§1) An active inhibitor protects C2 from C1 and C4; (ii) Test, Code 035 (C3-C9 inhibitor)--This test determines the ability of the late components of human complement (C3-C9) to lyse EAC 142 in the presence of appropriate dilutions of the test compound. An active inhibitor protects EAC 142 from lysis by human C3-C9; (iii) Test, Code 036 (C-Shunt inhibitor)--In this test human erythrocytes rendered fragile are lysed in autologous serum via the shunt pathway activated by cobra venom factor in the presence of appropriate dilutions of the test compound. Inhibition of the shunt pathway results in failure of lysis; (iv) Forssman Vasculitis Test--Here, the well known complement dependent lesion, Forssman vasculitis, is produced in guinea pigs by intradermal injection of rabbit anti-Forssman antiserum. […]
(§2) With reference to Table I, guinea pigs weighing about 300 g were dosed intravenously (i.v.) or intraperitoneally (i.p.) with 200 mg/kg of the test compound dissolved in saline and adjusted to pH 7-8. […] Percent inhibition was calculated by comparison with simultaneous controls. […]

In assay [2] the test system is whole complement in serum. The experiment in a line: Complement Level Reduction Test in dosed guinea pigs (capillary tube assay). The format is in vivo. The following applies: guinea pig, intraperitoneal, 200 mg/kg.
Assay [3] deals with activated human C1. The experiment in a line: Test, Code 026 (C1 inhibitor). The format is biochemical. The conditions noted are these: in vitro; two-fold serial dilution assay; higher well number indicates higher activity.
Text: as §1, §2

The subject of assay [4] is late components of human complement (C3-C9). Put plainly: Test, Code 035 (C3-C9 inhibitor), lysis of EAC 142. The following applies: in vitro; two-fold serial dilution assay; higher well number indicates higher activity. The format is cell-based.
Text: as §1, §2

In assay [5] the test system is complement system. The following applies: reported in cited literature; cited from earlier work.
In assay [6] the test system is hereditary angioneurotic edema. The conditions noted are these: The New England Journal of Medicine, 286, 808-812 (1972); cited from earlier work.

Where a name gives a salt, the structure may show the parent alone.

As to `Cc1c(NC(=S)Nc2cc(S(=O)(=O)[O-])cc3cc(S(=O)(=O)[O-])cc(S(=O)(=O)[O-])c23)cc(S(=O)(=O)[O-])cc1NC(=S)Nc1cc(S(=O)(=O)[O-])cc2cc(S(=O)(=O)[O-])cc(S(=O)(=O)[O-])c12.[Na+].[Na+].[Na+].[Na+].[Na+].[Na+].[Na+]` [8,8'-[(2-methyl-5-sulfo-1,3-phenylene)bis(2-thioureylene)]di-1,3,6-naphthalenetrisulfonic acid heptasodium salt], the “Shunt Inhibition 036* Wells” value in assay [1] is recorded as “N”. Moreover, the entries for the “% change in serum complement level” value in assay [2] (30 minutes), in assay [2] (60 minutes) and in assay [2] (120 minutes) were -40%, -40% and -51%, respectively. Further, in assay [3], the “C1 026* Wells” value was “+7 Wells”. For the same molecule, in assay [4], the “C-Late 035* Wells” value was “N”.

For `Cc1ccc(C(=O)Nc2ccc(S(=O)(=O)O)c3cc(S(=O)(=O)O)cc(S(=O)(=O)O)c23)cc1NC(=O)c1cccc(NC(=O)Nc2cccc(C(=O)Nc3cc(C(=O)Nc4ccc(S(=O)(=O)O)c5cc(S(=O)(=O)O)cc(S(=O)(=O)O)c45)ccc3C)c2)c1` [Suramin], the “anticomplementary effect / inhibition of the complement system” value (shortened to “anticomplementary effect / inhibition”) in assay [5] is “competitive inhibitor of the complement system”. In addition, the “use in treatment of hereditary angioneurotic edema” value (“use in treatment” for short) in assay [6] is given as “used with success”.

For `Nc1ccc2cc(S(=O)(=O)O)cc(O)c2c1N=Nc1ccc(NC(=O)Nc2ccc(N=Nc3c(N)ccc4cc(S(=O)(=O)O)cc(O)c34)c(S(=O)(=O)O)c2)cc1S(=O)(=O)O` [chlorazol fast pink, 3,3'-ureylenebis-[6-(2-amino-8-hydroxy-6-sulfo-1-naphthylazo)]benzenesulfonic acid, tetrasodium salt], the “anticomplementary effect / inhibition” value in assay [5] was “anticomplementary effect”.

For `NCCCCCC(=O)O` [epsilon-aminocaproic acid], in assay [6], the “use in treatment” value is “used with success”.

Take `NC[C@H]1CC[C@H](C(=O)O)CC1` [tranexamic acid]: the “use in treatment” value in assay [6] is reported as “used with success”.

With heparin, in assay [5], the “anticomplementary effect / inhibition” value is listed as “anticomplementary effect”.
